In the supplement of paper PMC10307832:

What was measured:
Assay in all cases: relative viability (nuclei count vs DMSO), 5 days (fraction); higher = more cells survive
[1] = system: NCI-H1299
In short: (§1)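 Lung cancer cell lines in 1536-well plates were dosed by pin tool the day after seeding, either with one drug alone or with a fixed anchor-drug dose plus five library-drug doses (not always all listed) in √10 steps. After 5 days, cells were fixed and their nuclei stained in one step (final 0.05% Triton X-100, 1% formaldehyde, 1 ug/ml Hoechst), then counted on 4× images. Relative viability is the nuclei count in treated wells divided by that in vehicle wells. Values are medians of duplicate plates.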

[2] = system: PC-3 [JPC-3]
In short: as §1

[3] = system: EBC-1
In short: as §1

[4] = system: IA-LM
In short: as §1

[5] = system: NCI-H1651
In short: as §1

[6] = system: NCI-H1944
In short: as §1

[7] = system: RERF-LC-KJ
In short: as §1

[8] = system: Calu-6
In short: as §1

[9] = system: A549
In short: as §1

[10] = system: NCI-H838
In short: as §1

[11] = system: NCI-H1703
In short: as §1

[12] = system: NCI-H520
In short: as §1

[13] = system: NCI-H650
In short: as §1

Compound `CC(=O)O[C@@]12CO[C@@H]1C[C@H](O)[C@@]1(C)C(=O)[C@H](O)C3=C(C)[C@@H](OC(=O)[C@H](O)[C@@H](NC(=O)OC(C)(C)C)c4ccccc4)C[C@@](O)([C@@H](OC(=O)c4ccccc4)[C@H]21)C3(C)C` [Docetaxel] + CC1(C)CCC(c2ccc(Cl)cc2)=C(CN2CCN(c3ccc(C(=O)NS(=O)(=O)c4ccc(N[C@H](CCN5CCOCC5)CSc5ccccc5)c(S(=O)(=O)C(F)(F)F)c4)cc3)CC2)C1 [Navitoclax] (partner 0.5 µM) has a relative viability ([1]; first compound 0.0002 µM) of 1.05, a relative viability ([1]; first compound 0.000632 µM) of 1.03 and a relative viability ([1]; first compound 0.002 µM) of 0.938. It also gave a relative viability ([1]; first compound 0.006325 µM) of 0.526, a relative viability ([1]; first compound 0.02 µM) of 0.351 and a relative viability ([2]; first compound 0.0002 µM) of 0.82. For the same compound, the relative viability ([2]; first compound 0.000632 µM) was 0.721, the relative viability ([2]; first compound 0.002 µM) was 0.527 and the relative viability ([2]; first compound 0.006325 µM) was 0.229. It also gave a relative viability ([2]; first compound 0.02 µM) of 0.202, a relative viability ([3]; first compound 0.0002 µM) of 0.259 and a relative viability ([3]; first compound 0.000632 µM) of 0.27. The relative viability ([3]; first compound 0.002 µM) was 0.152, the relative viability ([3]; first compound 0.006325 µM) was 0.206 and the relative viability ([3]; first compound 0.02 µM) was 0.124. It also gave a relative viability ([4]; first compound 0.0002 µM) of 0.506, a relative viability ([4]; first compound 0.000632 µM) of 0.172 and a relative viability ([4]; first compound 0.002 µM) of 0.0734. For the same compound, the relative viability ([4]; first compound 0.006325 µM) was 0.0267, the relative viability ([4]; first compound 0.02 µM) was 0.024 and the relative viability ([5]; first compound 0.0002 µM) was 1.18. The relative viability ([5]; first compound 0.000632 µM) was 0.968, the relative viability ([5]; first compound 0.002 µM) was 0.233 and the relative viability ([5]; first compound 0.006325 µM) was 0.0921. The relative viability ([5]; first compound 0.02 µM) was 0.0627, the relative viability ([6]; first compound 0.0002 µM) was 1.07 and the relative viability ([6]; first compound 0.000632 µM) was 1.05. The relative viability ([6]; first compound 0.002 µM) was 0.942, the relative viability ([6]; first compound 0.006325 µM) was 0.297 and the relative viability ([6]; first compound 0.02 µM) was 0.155. The relative viability ([7]; first compound 0.0002 µM) was 0.754, the relative viability ([7]; first compound 0.000632 µM) was 0.576 and the relative viability ([7]; first compound 0.002 µM) was 0.174. For the same compound, the relative viability ([7]; first compound 0.006325 µM) was 0.202, the relative viability ([7]; first compound 0.02 µM) was 0.154 and the relative viability ([8]; first compound 0.0002 µM) was 1.02. For the same compound, the relative viability ([8]; first compound 0.000632 µM) was 0.707, the relative viability ([8]; first compound 0.002 µM) was 0.111 and the relative viability ([8]; first compound 0.006325 µM) was 0.0836. The relative viability ([8]; first compound 0.02 µM) was 0.0609, the relative viability ([9]; first compound 0.0002 µM) was 0.985 and the relative viability ([9]; first compound 0.000632 µM) was 0.245. For the same compound, the relative viability ([9]; first compound 0.002 µM) was 0.055, the relative viability ([9]; first compound 0.006325 µM) was 0.0522 and the relative viability ([9]; first compound 0.02 µM) was 0.0365. The relative viability ([10]; first compound 0.0002 µM) was 1.15, the relative viability ([10]; first compound 0.000632 µM) was 1.22 and the relative viability ([10]; first compound 0.002 µM) was 0.29. For the same compound, the relative viability ([10]; first compound 0.006325 µM) was 0.176, the relative viability ([10]; first compound 0.02 µM) was 0.135 and the relative viability ([11]; first compound 0.0002 µM) was 1.07. The relative viability ([11]; first compound 0.000632 µM) was 0.551, the relative viability ([11]; first compound 0.006325 µM) was 0.129 and the relative viability ([11]; first compound 0.02 µM) was 0.108. The relative viability ([12]; first compound 0.0002 µM) was 1.07, the relative viability ([12]; first compound 0.000632 µM) was 0.86 and the relative viability ([12]; first compound 0.002 µM) was 0.283. For the same compound, the relative viability ([12]; first compound 0.006325 µM) was 0.16 and the relative viability ([12]; first compound 0.02 µM) was 0.156.

Compound `CC(=O)O[C@@]12CO[C@@H]1C[C@H](O)[C@@]1(C)C(=O)[C@H](O)C3=C(C)[C@@H](OC(=O)[C@H](O)[C@@H](NC(=O)OC(C)(C)C)c4ccccc4)C[C@@](O)([C@@H](OC(=O)c4ccccc4)[C@H]21)C3(C)C` [Docetaxel] + CC(C)C[C@H](NC(=O)[C@H](Cc1ccccc1)NC(=O)c1cnccn1)B(O)O [Bortezomib] (partner 0.002 µM) has a relative viability ([1]; first compound 0.0002 µM) of 1.05, a relative viability ([1]; first compound 0.000632 µM) of 0.997 and a relative viability ([1]; first compound 0.002 µM) of 0.948. The relative viability ([1]; first compound 0.006325 µM) was 0.586, the relative viability ([1]; first compound 0.02 µM) was 0.503 and the relative viability ([2]; first compound 0.0002 µM) was 0.794. For the same compound, the relative viability ([2]; first compound 0.000632 µM) was 0.959, the relative viability ([2]; first compound 0.002 µM) was 0.735 and the relative viability ([2]; first compound 0.006325 µM) was 0.263. It also gave a relative viability ([2]; first compound 0.02 µM) of 0.193, a relative viability ([13]; first compound 0.0002 µM) of 0.636 and a relative viability ([13]; first compound 0.000632 µM) of 0.425. For the same compound, the relative viability ([13]; first compound 0.002 µM) was 0.309, the relative viability ([13]; first compound 0.006325 µM) was 0.233 and the relative viability ([13]; first compound 0.02 µM) was 0.196. The relative viability ([3]; first compound 0.0002 µM) was 0.479, the relative viability ([3]; first compound 0.000632 µM) was 0.385 and the relative viability ([3]; first compound 0.002 µM) was 0.237. For the same compound, the relative viability ([3]; first compound 0.006325 µM) was 0.27, the relative viability ([3]; first compound 0.02 µM) was 0.174 and the relative viability ([4]; first compound 0.0002 µM) was 0.471. The relative viability ([4]; first compound 0.000632 µM) was 0.192, the relative viability ([4]; first compound 0.002 µM) was 0.11 and the relative viability ([4]; first compound 0.006325 µM) was 0.0654. For the same compound, the relative viability ([4]; first compound 0.02 µM) was 0.0642, the relative viability ([5]; first compound 0.0002 µM) was 0.802 and the relative viability ([5]; first compound 0.000632 µM) was 0.926. The relative viability ([5]; first compound 0.002 µM) was 0.744, the relative viability ([5]; first compound 0.006325 µM) was 0.22 and the relative viability ([5]; first compound 0.02 µM) was 0.137. It also gave a relative viability ([7]; first compound 0.0002 µM) of 0.967, a relative viability ([7]; first compound 0.000632 µM) of 0.841 and a relative viability ([7]; first compound 0.002 µM) of 0.499. For the same compound, the relative viability ([7]; first compound 0.006325 µM) was 0.251, the relative viability ([7]; first compound 0.02 µM) was 0.198 and the relative viability ([8]; first compound 0.0002 µM) was 0.95. For the same compound, the relative viability ([8]; first compound 0.000632 µM) was 0.828, the relative viability ([8]; first compound 0.002 µM) was 0.327 and the relative viability ([8]; first compound 0.006325 µM) was 0.182. For the same compound, the relative viability ([8]; first compound 0.02 µM) was 0.106, the relative viability ([10]; first compound 0.0002 µM) was 0.795 and the relative viability ([10]; first compound 0.000632 µM) was 0.522. For the same compound, the relative viability ([10]; first compound 0.002 µM) was 0.247, the relative viability ([10]; first compound 0.006325 µM) was 0.154 and the relative viability ([10]; first compound 0.02 µM) was 0.0975. For the same compound, the relative viability ([11]; first compound 0.0002 µM) was 0.256, the relative viability ([11]; first compound 0.000632 µM) was 0.249 and the relative viability ([11]; first compound 0.006325 µM) was 0.149. The relative viability ([11]; first compound 0.02 µM) was 0.0944, the relative viability ([12]; first compound 0.0002 µM) was 0.45 and the relative viability ([12]; first compound 0.000632 µM) was 0.233. It also gave a relative viability ([12]; first compound 0.002 µM) of 0.251, a relative viability ([12]; first compound 0.006325 µM) of 0.172 and a relative viability ([12]; first compound 0.02 µM) of 0.108.
